Data reported in PMC10761396, “Evaluation of new alternative methods for the identification of estrogenic, androgenic and steroidogenic effects: a comparative in vitro/in silico study” (Archives of Toxicology, 2023).

Legend:
[1] = target: T1, ERα (Homo sapiens, UniProt P03372); test: (anti-)ERα CALUX receptor transactivation assay; assay type: cell-based; parameters: expressed in transfected cells; host or cells: CALUX cells (U2-OS is named only for the cytotoxicity CALUX)
T1 sequence (P03372 1-595): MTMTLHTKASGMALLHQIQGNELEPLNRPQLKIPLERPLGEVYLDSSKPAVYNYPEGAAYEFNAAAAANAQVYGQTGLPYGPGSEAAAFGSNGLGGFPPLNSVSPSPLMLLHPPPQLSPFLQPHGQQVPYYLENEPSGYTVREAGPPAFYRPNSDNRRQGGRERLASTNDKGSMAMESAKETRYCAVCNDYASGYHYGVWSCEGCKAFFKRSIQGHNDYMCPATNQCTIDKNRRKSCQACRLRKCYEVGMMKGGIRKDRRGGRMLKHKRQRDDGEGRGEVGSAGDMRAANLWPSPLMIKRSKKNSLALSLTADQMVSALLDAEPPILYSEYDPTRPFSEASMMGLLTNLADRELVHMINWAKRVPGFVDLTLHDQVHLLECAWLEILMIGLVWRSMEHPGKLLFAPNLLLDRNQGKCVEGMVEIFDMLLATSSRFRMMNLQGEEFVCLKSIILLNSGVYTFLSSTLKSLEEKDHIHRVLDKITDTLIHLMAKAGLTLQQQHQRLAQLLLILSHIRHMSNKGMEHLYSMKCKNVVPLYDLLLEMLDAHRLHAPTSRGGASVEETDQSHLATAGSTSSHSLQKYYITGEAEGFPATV
Description: The human CALUX® assays were used to measure the impact of test compounds on estrogen and androgen pathways. […] Chemicals can activate (or inactivate, in the case of an antagonistic activity) a ligand-specific pathway by binding to the receptor (ER, AR), after which the receptor-ligand complex binds to specific DNA REs […], resulting in increased (or decreased) cellular expression of a marker protein (e.g., luciferase).
Chemicals were dissolved and diluted in DMSO. […] The cytotoxicity of each test chemical was assessed using the U2-OS based cytotoxicity CALUX bioassay. Concentrations causing >20% reduction of luminescence were considered cytotoxic. […] Luciferase production was quantified by measuring luminescence following addition of luciferin. For antagonist assays, a fixed concentration of receptor agonist was co-incubated with a range of concentrations of the test chemical. […] For the AR assays, dihydrotestosterone was the positive control for agonistic effects and flutamide was the positive control for antagonist effects.
Each test chemical was tested in triplicates in two independent experiments.

[2] = system: ER; parameters: method as in Browne, et al (2015); details: ref Browne, et al (2015), cited from earlier work; for ToxCast Pathway Model (AUC): as agonist where given, value above 0.1 = significant interaction
[3] = target: T2, AR (Homo sapiens, UniProt P10275); test: YAS (Yeast androgen screen) assay, agonist and antagonist mode
T2 sequence (P10275 1-920): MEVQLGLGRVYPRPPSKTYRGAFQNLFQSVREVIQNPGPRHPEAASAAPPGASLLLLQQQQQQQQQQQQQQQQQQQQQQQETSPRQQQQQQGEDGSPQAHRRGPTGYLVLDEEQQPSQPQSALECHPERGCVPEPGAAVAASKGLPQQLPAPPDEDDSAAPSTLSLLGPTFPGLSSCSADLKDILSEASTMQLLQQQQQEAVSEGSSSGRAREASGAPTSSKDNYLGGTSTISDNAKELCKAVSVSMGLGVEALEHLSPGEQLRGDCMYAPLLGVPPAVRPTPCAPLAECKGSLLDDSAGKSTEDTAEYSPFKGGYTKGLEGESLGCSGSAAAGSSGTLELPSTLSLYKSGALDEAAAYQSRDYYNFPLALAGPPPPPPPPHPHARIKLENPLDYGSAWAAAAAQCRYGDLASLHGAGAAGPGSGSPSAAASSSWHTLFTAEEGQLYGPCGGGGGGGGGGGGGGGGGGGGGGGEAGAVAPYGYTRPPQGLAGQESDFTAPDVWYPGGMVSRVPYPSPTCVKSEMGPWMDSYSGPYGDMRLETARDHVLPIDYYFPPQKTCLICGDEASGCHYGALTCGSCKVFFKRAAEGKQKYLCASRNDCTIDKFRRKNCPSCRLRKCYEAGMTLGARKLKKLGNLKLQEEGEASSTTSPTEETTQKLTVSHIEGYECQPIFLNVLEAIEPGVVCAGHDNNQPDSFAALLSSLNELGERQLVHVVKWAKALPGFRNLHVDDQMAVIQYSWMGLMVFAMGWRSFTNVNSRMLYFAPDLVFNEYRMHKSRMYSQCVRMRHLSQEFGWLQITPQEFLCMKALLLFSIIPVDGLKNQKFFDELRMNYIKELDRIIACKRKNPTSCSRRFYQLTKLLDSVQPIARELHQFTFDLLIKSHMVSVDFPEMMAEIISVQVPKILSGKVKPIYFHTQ
Description: The YES/YAS XL (Xtra Lyticase) assay kit from Xenometrix AG (Allschwil, Switzerland) was conducted according to the Supplier’s instructions.
In the YES assay, human ERα is integrated in the yeast (Saccharomyces cerevisiae) chromosome, and for the YAS assay human AR is integrated (Routledge and Sumpter 1996; Sohoni and Sumpter 1998). […] This enzyme then converts a yellow substrate to a purple metabolite, which can be measured colorimetrically.
Growing yeast cells stably transformed with either hERα (YES) or hAR (YAS) and a β-galactosidase reporter system were exposed to a range of concentrations of each test compound. […] The positive control chemicals for agonistic effects were 17-β estradiol for YES and 5α-dihydrotestosterone for YAS. […] A combination of a fixed concentration of positive control and a range of concentrations of each test chemical were tested. The cells were incubated with each treatment for 18 h at 31°C. The cells were lysed in the presence of the yellow β-galactosidase-substrate, chlorophenol red-β-D-galactopyranoside (CPRG). Yeast cell growth was assessed prior to addition of the lysis buffer by measuring the absorbance at 690 nm. The production of the red metabolite of CPRG was determined by measuring the absorbance at 570 nm. It was corrected for diffraction by cells and debris by a simultaneous measurement at 690 nm. The results were evaluated for estrogenic and androgenic agonistic and antagonistic activity, as well as for yeast growth inhibition or cytotoxicity.
An IR value ≥ IR10 in the YES or YAS agonist assay indicates an agonistic effect (IR10 is defined as the IR which is 10% of (IR max - IR solvent) above the IR solvent. An IR value ≤ IR50 in the YES or YAS antagonist assay indicates a possible antagonistic effect (IR50 is defined as 50% of (IR control - IR solvent), where the IR control is at the corresponding fixed concentration of agonist used: 3.3 × 10^-10 M 17-β estradiol and 3.3 × 10^-9 M 5α-dihydrotestosterone, respectively). […]

Row | SMILES | Lowest Effective Concentration (LEC), ER agonism [1] [µM] | ToxCast Pathway Model (AUC) [2] | ToxCast Pathway Model interaction [2] | AR antagonism in the YAS assay ([3]; YAS antagonist assay) | outcome in the YAS assay ([3]; agonist and antagonist) | toxicity to yeast (decrease in the yeast cell growth) ([3]; highest concentrations tested)
1 | C[C@]12CCC(=O)C[C@@H]1CC[C@@H]1[C@@H]2CC[C@@]2(C)[C@H]1CC[C@]2(C)O [Mestanolone, mestanolone, reference compound] | 0.028 |  |  |  |  | 
2 | O=c1c(-c2ccc(O)cc2)coc2cc(O)ccc12 [Daidzein, daidzein] | 0.1 | 0.44 | significant interaction |  |  | 
3 | CCCCN(CCCC)c1ccc(C(=O)c2ccccc2C(=O)O)c(O)c1 [DBABA, 2-[4-(dibutylamino)-2-hydroxybenzoyl]benzoic acid] |  |  |  | inconclusive |  | 
4 | CC(C)(C)CC(C)(C)c1ccc(O)cc1 [4-TO, 4-tert-octylphenol] |  | 0.393 | significant interaction |  | negative | toxic at the highest concentrations tested
